Laboratory results taken from the Kinase Knowledgebase extract (Sharma et al. 2016).

Tests used:
[1] = target: MAPK14 (human) (UniProt Q16539); experiment: Inhibition of LPS-Induced TNF-alpha Production in Human Peripheral Blood Mononuclear Cell; conditions: pbmc
[2] = test system: MAPK14 (mice); experiment: Inhibition of LPS-Induced TNF-alpha Production in Mice; conditions: dose or concentration not given here
[3] = target: MAPK14 (UniProt Q16539); experiment: Inhibition of MAPK14 Kinase Activity
MAPK14, sequence (Q16539 whole entry, looked up): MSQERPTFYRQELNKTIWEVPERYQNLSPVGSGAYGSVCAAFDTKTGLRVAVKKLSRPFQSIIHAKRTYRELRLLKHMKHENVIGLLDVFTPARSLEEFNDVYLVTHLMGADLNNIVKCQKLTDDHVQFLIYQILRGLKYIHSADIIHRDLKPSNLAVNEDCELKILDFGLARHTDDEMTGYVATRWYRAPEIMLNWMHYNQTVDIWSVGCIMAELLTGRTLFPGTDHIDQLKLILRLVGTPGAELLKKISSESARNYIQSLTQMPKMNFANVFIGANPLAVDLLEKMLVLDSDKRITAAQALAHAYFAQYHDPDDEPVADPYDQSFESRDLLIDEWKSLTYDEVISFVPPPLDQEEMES

MAPK14 (human), sequence (Q16539 whole entry, looked up): as above

| Structure (SMILES) | IC50 [1] [nM] | IC50 [3] [nM] | inhibition [2] [%] |
| --- | --- | --- | --- |
| Nc1ccn2c(-c3ccncc3)c(-c3ccc(F)cc3)nc2n1 | 40 | – | – |
| COC[C@H](C)Nc1cc(-c2c(-c3ccccc3)nc3nc(N)ccn23)ccn1 | 0.5 | – | – |
| Nc1ccn2c(-c3ccnc(N[C@H]4CCCc5ccccc54)c3)c(-c3ccccc3)nc2n1 | 3 | – | – |
| Fc1ccc(-c2[nH]c3ccc4[nH]c(Cc5ccccc5)nc4c3c2-c2ccncc2)cc1 | 60 | – | – |

Further lines, with some results ahead:

| IC50 [1] [nM] | IC50 [3] [nM] | Structure (SMILES) | inhibition [2] [%] |
| --- | --- | --- | --- |
| 2.3 | – | C[C@@H](Nc1nccc(-c2c(-c3ccccc3)nc3nc(N)ccn23)n1)c1ccccc1 | – |
| 0.6 | – | C[C@H](Nc1nccc(-c2c(-c3ccccc3)nc3nc(N)ccn23)n1)c1ccccc1 | 100 |
| 2 | 1 | C[C@H](Nc1cc(-c2c(-c3ccc(F)cc3)nc3nc(N)ccn23)ccn1)c1ccccc1 | – |
